Laboratory results as given in the NIST ThermoML archive (doi:10.1016/j.jct.2015.03.001).

How the values were obtained:
[1] = relative permittivity at various frequencies (dimensionless); xn = mol fraction of the nth substance listed; settings: 99 kPa, Liquid, Frequency=2 MHz, Parallel plate capacitor
[2] = refractive index (Na D-line) (dimensionless); xn = mol fraction of the nth substance listed; settings: 99 kPa, Liquid, Abbe refractometer

CC(C)(C)Cl [2-chloro-2-methylpropane] + CCCCCCC
Settings	refractive index, 283.15 K	refractive index, 298.15 K	refractive index, 313.15 K	relative permittivity, 283.15 K	relative permittivity, 298.15 K	relative permittivity, 313.15 K
[1], x2 = 0	–	–	–	10.429	9.67	8.952
[1], x2 = 0.0506	–	–	–	9.787	9.1	8.449
[1], x2 = 0.1035	–	–	–	9.109	8.485	7.907
[1], x2 = 0.2006	–	–	–	7.895	7.373	6.892
[1], x2 = 0.3012	–	–	–	6.721	6.293	5.932
[1], x2 = 0.3976	–	–	–	5.754	5.41	5.118
[1], x2 = 0.504	–	–	–	4.827	4.566	4.34
[1], x2 = 0.6015	–	–	–	4.103	3.914	3.747
[1], x2 = 0.6988	–	–	–	3.472	3.341	3.226
[1], x2 = 0.8014	–	–	–	2.905	2.819	2.749
[1], x2 = 0.9027	–	–	–	2.407	2.359	2.322
[1], x2 = 0.9444	–	–	–	2.209	2.173	2.144
[2], x2 = 0	1.39115	1.38225	1.37312	–	–	–
[2], x2 = 0.0511	1.39054	1.38172	1.37267	–	–	–
[2], x2 = 0.0962	1.39025	1.38149	1.37249	–	–	–
[2], x2 = 0.1985	1.38996	1.3813	1.37238	–	–	–
[2], x2 = 0.2955	1.38988	1.38132	1.37254	–	–	–
[2], x2 = 0.3985	1.39001	1.38159	1.37294	–	–	–
[2], x2 = 0.4985	1.39024	1.38196	1.37347	–	–	–
[2], x2 = 0.5996	1.39059	1.38244	1.37414	–	–	–
[2], x2 = 0.7039	1.39105	1.38306	1.37492	–	–	–
[2], x2 = 0.8032	1.39164	1.38375	1.37573	–	–	–
[2], x2 = 0.9039	1.39225	1.38447	1.37653	–	–	–
[2], x2 = 0.9618	1.39267	1.38492	1.37703	–	–	–

CC(C)CCl [1-chloro-2-methylpropane] + CCCCCC
Settings	refractive index, 283.15 K	refractive index, 298.15 K	refractive index, 313.15 K	relative permittivity, 283.15 K	relative permittivity, 298.15 K	relative permittivity, 313.15 K
[1], x2 = 0	–	–	–	7.472	7.074	6.657
[1], x2 = 0.0482	–	–	–	7.14	6.773	6.385
[1], x2 = 0.1006	–	–	–	6.784	6.442	6.082
[1], x2 = 0.1985	–	–	–	6.106	5.816	5.506
[1], x2 = 0.2966	–	–	–	5.432	5.191	4.929
[1], x2 = 0.3985	–	–	–	4.768	4.573	4.358
[1], x2 = 0.5036	–	–	–	4.142	3.991	3.82
[1], x2 = 0.5998	–	–	–	3.626	3.513	3.38
[1], x2 = 0.6993	–	–	–	3.149	3.064	2.966
[1], x2 = 0.8028	–	–	–	2.707	2.648	2.579
[1], x2 = 0.9002	–	–	–	2.315	2.278	2.232
[1], x2 = 0.9462	–	–	–	2.129	2.102	2.068
[2], x2 = 0	1.40354	1.39529	1.38683	–	–	–
[2], x2 = 0.0484	1.40197	1.39371	1.38526	–	–	–
[2], x2 = 0.0984	1.40039	1.39212	1.38366	–	–	–
[2], x2 = 0.2052	1.39725	1.38895	1.38049	–	–	–
[2], x2 = 0.3044	1.39452	1.3862	1.37775	–	–	–
[2], x2 = 0.4034	1.39199	1.38367	1.37523	–	–	–
[2], x2 = 0.5052	1.38961	1.3813	1.37287	–	–	–
[2], x2 = 0.6134	1.38726	1.37897	1.37057	–	–	–
[2], x2 = 0.7019	1.38551	1.37722	1.36883	–	–	–
[2], x2 = 0.8082	1.38355	1.37526	1.3669	–	–	–
[2], x2 = 0.908	1.38189	1.3736	1.36525	–	–	–
[2], x2 = 0.9475	1.38129	1.37301	1.36468	–	–	–
